Reference: patent US6841519B1, “Isoxazoline derivatives and herbicides containing the same as the active ingredient” (Kumiai Chemical Industry Co., Ltd., priority 1999, dated 2005)

Key:
Type in all cases: in vivo
[1] = tested on: Echinochloa oryzicola Vasing. (Eo); assay: Test for herbicidal effect by paddy field soil treatment (Test Example 1); settings: application amount (active ingredient) 100 g/10 a, examined at the 21st day from the treatment, index per Table 40
Outline: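 Scored on a standard scale at day 21 in the greenhouse: herbicidal effect of wettable powder applied to flooded water (3 cm depth) at 100 g a.i./10 ares, one day after sowing Eo into puddled paddy soil.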

[2] = tested on: Echinochloa crus-galli (L.) Beauv. var. crusgall (Ec); assay: Test for herbicidal effect by upland field soil treatment (Test Example 2), Ec
Outline: (§1)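 Pre-emergence soil treatment: wettable powder diluted in water and sprayed on soil just sown with Ec and Se seeds, delivering 100 g active ingredient per 10 ares in 100 liters per 10 ares. Herbicidal effect was rated against a fixed scale 21 days later, after greenhouse growth.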

[3] = tested on: rice (Or); assay: Test for crop selectivity by paddy field soil treatment (Test Example 4), phytotoxicity to rice; settings: transplanted two-leaf stage rice, 100 g/10 a active ingredient, 21st day
Method: (§2) [table] <Test Example 4> Test For Crop Selectivity By Paddy Field Soil Treatment A paddy field soil was filled in a plastic pot of 100 cm^2 and subjected to puddling. Seeds of Echinochloa oryzicola Vasing. (Eo) were sowed; two-leaf stage seedlings of rice (Or) were transplanted in a depth of 2 cm; and water was filled in a depth of 3 cm. Next day, wettable powders produced in accordance with the Formulation 1 were diluted with water and dropped on the water surface. The application amount of each wettable powder was 100 g per 10 ares in terms of the active ingredient. Then, breeding was made in a greenhouse. At the 21st day from the treatment, the phytotoxicity and herbicidal effect of each wettable powder were examined in accordance with the standard shown in Table 40.

[4] = tested on: Echinochloa oryzicola Vasing. (Eo); assay: Test for crop selectivity by paddy field soil treatment (Test Example 4), herbicidal effect on Eo; settings: 100 g/10 a active ingredient, 21st day
Method: as §2

[5] = tested on: Setaria viridis (L.) Beauv. (Se); assay: Test for herbicidal effect by upland field soil treatment (Test Example 2), Se
Outline: as §1

[6] = application amount (active ingredient) 100 g/10 a, examined at the 21st day from the treatment, index per Table 40
[7] = 100 g/10 a active ingredient, examined at 21st day

Compound	Herbicidal effect to Eo [1]	Herbicidal effect to Ec [2, 6]	Phytotoxicity to Or [3]	Herbicidal effect to Eo [4]	Herbicidal effect to Ec [2, 7]	Herbicidal effect to Se [5, 7]	Herbicidal effect to Se [5, 6]
CC1(CO)CC(S(=O)(=O)Cc2c(F)cccc2F)=NO1 (stereo not drawn) [Compound 1-394]	5 (A herbicidal effect or phytotoxicity of 90% or more)	4 (A herbicidal effect or phytotoxicity of 70% to less than 90%)	1 (A herbicidal effect or phytotoxicity of 10% to less than 30%)	5 (A herbicidal effect or phytotoxicity of 90% or more)	–	–	–
CCC(C)OC(=O)c1ccccc1CS(=O)(=O)C1=NOC(C)(C)C1 (stereo not drawn) [Compound 1-597]	5 (A herbicidal effect or phytotoxicity of 90% or more)	–	1 (A herbicidal effect or phytotoxicity of 10% to less than 30%)	5 (A herbicidal effect or phytotoxicity of 90% or more)	5 (A herbicidal effect or phytotoxicity of 90% or more)	4 (A herbicidal effect or phytotoxicity of 70% to less than 90%)	–
CCC1(C)CC(SCc2c(F)cccc2F)=NO1 (stereo not drawn) [Compound 1-198]	5 (A herbicidal effect or phytotoxicity of 90% or more)	4 (A herbicidal effect or phytotoxicity of 70% to less than 90%)	1 (A herbicidal effect or phytotoxicity of 10% to less than 30%)	5 (A herbicidal effect or phytotoxicity of 90% or more)	–	–	5 (A herbicidal effect or phytotoxicity of 90% or more)
CCCOC(=O)c1ccccc1CS(=O)(=O)C1=NOC(C)(C)C1 [Compound 1-594]	5 (A herbicidal effect or phytotoxicity of 90% or more)	–	1 (A herbicidal effect or phytotoxicity of 10% to less than 30%)	5 (A herbicidal effect or phytotoxicity of 90% or more)	5 (A herbicidal effect or phytotoxicity of 90% or more)	4 (A herbicidal effect or phytotoxicity of 70% to less than 90%)	–
CC1(C)CC(S(=O)(=O)Cc2ccccc2OC2CCCCC2)=NO1 [Compound 1-610]	5 (A herbicidal effect or phytotoxicity of 90% or more)	–	1 (A herbicidal effect or phytotoxicity of 10% to less than 30%)	5 (A herbicidal effect or phytotoxicity of 90% or more)	5 (A herbicidal effect or phytotoxicity of 90% or more)	5 (A herbicidal effect or phytotoxicity of 90% or more)	–
CCC1(C)CC(S(=O)(=O)Cc2cccc(F)c2)=NO1 (stereo not drawn) [Compound 1-190]	5 (A herbicidal effect or phytotoxicity of 90% or more)	5 (A herbicidal effect or phytotoxicity of 90% or more)	1 (A herbicidal effect or phytotoxicity of 10% to less than 30%)	5 (A herbicidal effect or phytotoxicity of 90% or more)	–	–	5 (A herbicidal effect or phytotoxicity of 90% or more)
CCOCCOc1ccccc1CS(=O)(=O)C1=NOC(C)(C)C1 [Compound 1-580]	5 (A herbicidal effect or phytotoxicity of 90% or more)	–	1 (A herbicidal effect or phytotoxicity of 10% to less than 30%)	5 (A herbicidal effect or phytotoxicity of 90% or more)	5 (A herbicidal effect or phytotoxicity of 90% or more)	–	–
CC1(C)CC(S(=O)(=O)Cc2c(N)cccc2F)=NO1 [Compound 1-549]	5 (A herbicidal effect or phytotoxicity of 90% or more)	–	1 (A herbicidal effect or phytotoxicity of 10% to less than 30%)	5 (A herbicidal effect or phytotoxicity of 90% or more)	5 (A herbicidal effect or phytotoxicity of 90% or more)	5 (A herbicidal effect or phytotoxicity of 90% or more)	–
O=S(=O)(Cc1c(F)cccc1F)C1=NOC2CCCCCC12 (stereo not drawn) [Compound 1-518]	–	–	1 (A herbicidal effect or phytotoxicity of 10% to less than 30%)	5 (A herbicidal effect or phytotoxicity of 90% or more)	5 (A herbicidal effect or phytotoxicity of 90% or more)	4 (A herbicidal effect or phytotoxicity of 70% to less than 90%)	–
CCC1(C)CC(S(=O)(=O)Cc2cccc(C#N)c2)=NO1 (stereo not drawn) [Compound 1-328]	5 (A herbicidal effect or phytotoxicity of 90% or more)	4 (A herbicidal effect or phytotoxicity of 70% to less than 90%)	0 (A herbicidal effect or phytotoxicity of 0% to less than 10%)	5 (A herbicidal effect or phytotoxicity of 90% or more)	–	–	4 (A herbicidal effect or phytotoxicity of 70% to less than 90%)
O=S(=O)(Cc1c(F)cccc1F)C1=NOC2(CCCCC2)C1 [Compound 1-384]	5 (A herbicidal effect or phytotoxicity of 90% or more)	5 (A herbicidal effect or phytotoxicity of 90% or more)	0 (A herbicidal effect or phytotoxicity of 0% to less than 10%)	5 (A herbicidal effect or phytotoxicity of 90% or more)	–	–	4 (A herbicidal effect or phytotoxicity of 70% to less than 90%)
CCCOC(=O)c1cccc(Cl)c1CS(=O)(=O)C1=NOC(C)(C)C1 [Compound 1-620]	5 (A herbicidal effect or phytotoxicity of 90% or more)	–	1 (A herbicidal effect or phytotoxicity of 10% to less than 30%)	5 (A herbicidal effect or phytotoxicity of 90% or more)	5 (A herbicidal effect or phytotoxicity of 90% or more)	5 (A herbicidal effect or phytotoxicity of 90% or more)	–
CC(C)C1(C)CC(S(=O)(=O)Cc2c(F)cccc2F)=NO1 (stereo not drawn) [Compound 1-368]	5 (A herbicidal effect or phytotoxicity of 90% or more)	5 (A herbicidal effect or phytotoxicity of 90% or more)	1 (A herbicidal effect or phytotoxicity of 10% to less than 30%)	5 (A herbicidal effect or phytotoxicity of 90% or more)	–	–	4 (A herbicidal effect or phytotoxicity of 70% to less than 90%)
CCCCOc1cccc(C)c1CS(=O)(=O)C1=NOC(C)(C)C1 [Compound 1-605]	5 (A herbicidal effect or phytotoxicity of 90% or more)	–	1 (A herbicidal effect or phytotoxicity of 10% to less than 30%)	5 (A herbicidal effect or phytotoxicity of 90% or more)	5 (A herbicidal effect or phytotoxicity of 90% or more)	4 (A herbicidal effect or phytotoxicity of 70% to less than 90%)	–
CC1(C)CC(S(=O)(=O)Cc2ccccc2C(=O)OC2CCCC2)=NO1 [Compound 1-601]	5 (A herbicidal effect or phytotoxicity of 90% or more)	–	1 (A herbicidal effect or phytotoxicity of 10% to less than 30%)	5 (A herbicidal effect or phytotoxicity of 90% or more)	5 (A herbicidal effect or phytotoxicity of 90% or more)	–	–
CC(C)COC(=O)c1cccc(Cl)c1CS(=O)(=O)C1=NOC(C)(C)C1 [Compound 1-624]	5 (A herbicidal effect or phytotoxicity of 90% or more)	–	1 (A herbicidal effect or phytotoxicity of 10% to less than 30%)	5 (A herbicidal effect or phytotoxicity of 90% or more)	–	–	–
CC1(C)CC(S(=O)(=O)Cc2c(Cl)cccc2C(=O)OCc2ccc(Cl)cc2)=NO1 [Compound 1-628]	5 (A herbicidal effect or phytotoxicity of 90% or more)	–	0 (A herbicidal effect or phytotoxicity of 0% to less than 10%)	5 (A herbicidal effect or phytotoxicity of 90% or more)	–	–	–
CCCCOC(=O)c1cccc(Cl)c1CS(=O)(=O)C1=NOC(C)(C)C1 [Compound 1-622]	5 (A herbicidal effect or phytotoxicity of 90% or more)	–	1 (A herbicidal effect or phytotoxicity of 10% to less than 30%)	5 (A herbicidal effect or phytotoxicity of 90% or more)	5 (A herbicidal effect or phytotoxicity of 90% or more)	–	–
CC1(Cc2ccccc2)CC(S(=O)(=O)Cc2c(F)cccc2F)=NO1 (stereo not drawn) [Compound 1-377]	5 (A herbicidal effect or phytotoxicity of 90% or more)	–	0 (A herbicidal effect or phytotoxicity of 0% to less than 10%)	5 (A herbicidal effect or phytotoxicity of 90% or more)	–	–	–
CCC(C)OC(=O)c1cccc(Cl)c1CS(=O)(=O)C1=NOC(C)(C)C1 (stereo not drawn) [Compound 1-623]	5 (A herbicidal effect or phytotoxicity of 90% or more)	–	1 (A herbicidal effect or phytotoxicity of 10% to less than 30%)	5 (A herbicidal effect or phytotoxicity of 90% or more)	–	–	–
